# Target: Endothelial lipase (EL) (Homo sapiens (Human), UniProt Q9Y5X9)
# Assay: Endothelial lipase (EL) enzymatic assay with fluorescent substrate A10070 in DMPG vesicles
# Assay type: biochemical
# Conditions: not given
# How it was run: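 Substrate A10070 sits in sonicated DMPG vesicles at 0.11 mole fraction. Lipase and compound preincubated 30 min, 37° C, in HEPES pH 8.0 buffer with CaCl2.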
# Sequence of Endothelial lipase (EL) (Q9Y5X9 21-500): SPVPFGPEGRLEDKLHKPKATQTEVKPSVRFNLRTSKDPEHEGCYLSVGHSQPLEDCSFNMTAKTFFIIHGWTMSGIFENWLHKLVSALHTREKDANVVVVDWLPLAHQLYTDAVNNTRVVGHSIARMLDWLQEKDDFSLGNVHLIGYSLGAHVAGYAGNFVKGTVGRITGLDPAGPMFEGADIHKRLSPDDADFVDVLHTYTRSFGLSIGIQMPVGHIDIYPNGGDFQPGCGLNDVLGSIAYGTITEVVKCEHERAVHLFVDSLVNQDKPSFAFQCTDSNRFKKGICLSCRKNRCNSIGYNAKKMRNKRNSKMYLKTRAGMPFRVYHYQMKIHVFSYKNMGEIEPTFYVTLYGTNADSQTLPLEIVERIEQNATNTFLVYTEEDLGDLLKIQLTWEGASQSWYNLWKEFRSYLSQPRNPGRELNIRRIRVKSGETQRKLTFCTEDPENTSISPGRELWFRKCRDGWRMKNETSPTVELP
row,IC50 [nM],SMILES
1,20,"O=C(CNC(=O)C(c1nc2ccc(-c3ccc(F)nc3)cc2s1)S(=O)(=O)Cc1ccc(OC(F)(F)F)cc1)NC1CC1 (centres unmarked) [Example 513, N-[(cyclopropyl-carbamoyl)methyl]-2-[6-(6-fluoropyridin-3-yl)-1,3-benzothiazol-2-yl]-2-{[4-(trifluoromethoxy)phenyl]methanesulfonyl} acetamide]"
2,43,"COCCS(=O)(=O)C(C(=O)NCC(=O)NC1CC1)c1nc2c(F)cc(-c3ccc(F)nc3)cc2s1 (centres unmarked) [Example 514, N-[(cyclopropyl-carbamoyl)methyl]-2-[4-fluoro-6-(6-fluoropyridin-3-yl)-1,3-benzothiazol-2-yl]-2-(2-methoxyethane-sulfonyl)acetamide]"
3,57,"CC(C)CS(=O)(=O)C(C(=O)NCC(=O)NC1CC1)c1nc2ccc(-c3ccc(F)nc3)cc2s1 (centres unmarked) [Example 516, N-[(cyclopropyl-carbamoyl)methyl]-2-[6-(6-fluoropyridin-3-yl)-1,3-benzothiazol-2-yl]-2-(2-methylpropane-sulfonyl)acetamide]"
4,117,"O=C(CNC(=O)C(c1nc2ccc(-c3cncnc3)cc2s1)S(=O)(=O)Cc1ccc(F)cc1)NC1CC1 (centres unmarked) [Example 517, N-[(cyclopropyl-carbamoyl)methyl]-2-[(4-fluorophenyl)methanesulfonyl]-2-[6-(pyrimidin-5-yl)-1,3-benzothiazol-2-yl]acetamide]"
5,2,"COCCS(=O)(=O)C(C(=O)NCC(=O)NC1CC1)c1nc2cc(F)c(-c3ccc(NC(=O)OCc4ccccn4)cc3)cc2s1 (centres unmarked) [Example 519, pyridin-2-ylmethyl N-{4-[2-({[(cyclopropyl-carbamoyl)methyl]carbamoyl}(2-methoxyethane-sulfonyl)methyl)-5-fluoro-1,3-benzothiazol-6-yl]phenyl}carbamate]"
6,2,"O=C(CNC(=O)C(c1nc2cc(F)c(-c3ccc(NC(=O)OCc4ccccn4)cc3)cc2s1)S(=O)(=O)CCC(F)(F)F)NC1CC1 (centres unmarked) [Example 520, pyridin-2-ylmethyl N-{4-[2-({[(cyclopropyl-carbamoyl)methyl]carbamoyl}(3,3,3-trifluoropropane-sulfonyl)methyl)-5-fluoro-1,3-benzothiazol-6-yl]phenyl}carbamate]"
7,3,"N#Cc1cccc(COC(=O)Nc2ccc(-c3cc4sc(C(C(=O)NCC(=O)NC5CC5)S(=O)(=O)C5CC5)nc4cc3F)cc2)c1 (centres unmarked) [Example 521, (3-cyanophenyl) methyl N-(4-{2-[(cyclopropane-sulfonyl) ({[(cyclopropyl-carbamoyl)methyl]carbamoyl}methyl]-5-fluoro-1,3-benzothiazol-6-yl}phenyl) carbamate]"
8,1,"N#Cc1cccc(COC(=O)Nc2ccc(-c3cc4sc(C(C(=O)NCC(=O)NC5CC5)S(=O)(=O)CCC(F)(F)F)nc4cc3F)cc2)c1 (centres unmarked) [Example 522, (3-cyanophenyl) methyl N-{4-[2-({[(cyclopropyl-carbamoyl)methyl]carbamoyl}(3,3,3-trifluoropropane-sulfonyl)methyl)-5-fluoro-1,3-benzothiazol-6-yl]phenyl} carbamate]"
9,6,"O=C(CNC(=O)C(c1nc2cc(F)c(-c3ccc(NC(=O)OCc4nccs4)cc3)cc2s1)S(=O)(=O)CCC(F)(F)F)NC1CC1 (centres unmarked) [Example 523, 1,3-thiazol-2-ylmethyl N-{4-[2-({[(cyclopropyl-carbamoyl)methyl]carbamoyl}(3,3,3-trifluoropropane-sulfonyl)methyl)-5-fluoro-1,3-benzothiazol-6-yl]phenyl} carbamate]"
10,13,"COCCS(=O)(=O)C(C(=O)NCC(=O)NC1CC1)c1nc2cc(F)c(-c3ccc(NC(=O)OCc4nccs4)cc3)cc2s1 (centres unmarked) [Example 524, 1,3-thiazol-2-ylmethyl N-{4-[2-({[(cyclopropyl-carbamoyl)methyl]carbamoyl}(2-methoxyethane-sulfonyl)methyl)-5-fluoro-1,3-benzothiazol-6-yl]phenyl} carbamate]"
11,1,"COCCS(=O)(=O)C(C(=O)NCC(=O)NC1CC1)c1nc2cc(F)c(-c3ccc(NC(=O)OCC(F)(F)F)cc3)cc2s1 (centres unmarked) [Example 526, 2,2,2-trifluoroethyl N-{4-[2-({[(cyclopropyl-carbamoyl)methyl]carbamoyl}(2-methoxyethane-sulfonyl)methyl)-5-fluoro-1,3-benzothiazol-6-yl]phenyl} carbamate]"
12,9,"CS(=O)(=O)C(C(=O)NCC(=O)NC1CC1)c1nc2cc(F)c(-c3ccc(NC(=O)OCC4CC4)cc3)cc2s1 (centres unmarked) [Example 527, cyclopropylmethyl N-{4-[2-({[(cyclopropyl-carbamoyl)methyl]carbamoyl}) (methanesulfonyl)methyl)-5-fluoro-1,3-benzothiazol-6-yl]phenyl} carbamate]"
13,1,CC(C)S(=O)(=O)C(C(=O)NCC(=O)NC1CC1)c1nc2cc(F)c(-c3ccc(NC(=O)OCC4CC4)cc3)cc2s1 (centres unmarked) [Example 528]
14,2,"O=C(CNC(=O)C(c1nc2cc(F)c(-c3ccc(NC(=O)OCC(F)(F)F)cc3)cc2s1)S(=O)(=O)CCC(F)(F)F)NC1CC1 (centres unmarked) [Example 529, 2,2,2-trifluoroethyl N-{4-[2-({[(cyclopropyl-carbamoyl)methyl]carbamoyl}(3,3,3-trifluoropropane-sulfonyl)methyl)-5-fluoro-1,3-benzothiazol-6-yl]phenyl} carbamate]"
15,3,"O=C(CNC(=O)C(c1nc2cc(F)c(-c3ccc(NC(=O)OCC4CC4)cc3)cc2s1)S(=O)(=O)C1CC1)NC1CC1 (centres unmarked) [Example 530, cyclopropylmethyl N-(4-{2-[(cyclopropane-sulfonyl) ({[(cyclopropyl-carbamoyl)methyl]carbamoyl})methyl]-5-fluoro-1,3-benzothiazol-6-yl}phenyl) carbamate]"
16,1,"O=C(CNC(=O)C(c1nc2cc(F)c(-c3ccc(NC(=O)OCC4CC4)cc3)cc2s1)S(=O)(=O)CCC(F)(F)F)NC1CC1 (centres unmarked) [Example 531, cyclopropylmethyl N-{4-[2-({[(cyclopropyl-carbamoyl)methyl]carbamoyl}(3,3,3-trifluoropropane-sulfonyl)methyl)-5-fluoro-1,3-benzothiazol-6-yl]phenyl} carbamate]"
17,3,"COCCOC(=O)Nc1ccc(-c2cc3sc(C(C(=O)NCC(=O)NC4CC4)S(C)(=O)=O)nc3cc2F)cc1 (centres unmarked) [Example 533, 2-methoxyethyl N-{4-[2-({[(cyclopropyl-carbamoyl)methyl]carbamoyl} (methanesulfonyl)methyl)-5-fluoro-1,3-benzothiazol-6-yl]phenyl} carbamate]"
18,2,"COCCOC(=O)Nc1ccc(-c2cc3sc(C(C(=O)NCC(=O)NC4CC4)S(=O)(=O)CCC(F)(F)F)nc3cc2F)cc1 (centres unmarked) [Example 534, 2-methoxyethyl N-{4-[2-({[(cyclopropyl-carbamoyl)methyl]carbamoyl}(3,3,3-trifluoropropane-sulfonyl)methyl)-5-fluoro-1,3-benzothiazol-6-yl]phenyl} carbamate]"
19,4,"COCCOC(=O)Nc1ccc(-c2cc3sc(C(C(=O)NCC(=O)NC4CC4)S(=O)(=O)CCOC)nc3cc2F)cc1 (centres unmarked) [Example 535, 2-methoxyethyl N-{4-[2-({[(cyclopropyl-carbamoyl)methyl]carbamoyl}(2-methoxyethane-sulfonyl)methyl)-5-fluoro-1,3-benzothiazol-6-yl]phenyl} carbamate]"
20,2,"COCCOC(=O)Nc1ccc(-c2cc3sc(C(C(=O)NCC(=O)NC4CC4)S(=O)(=O)C4CC4)nc3cc2F)cc1 (centres unmarked) [Example 536, 2-methoxyethyl N-(4-{2-[(cyclopropane-sulfonyl) ({[(cyclopropyl-carbamoyl)methyl]carbamoyl})methyl]-5-fluoro-1,3-benzothiazol-6-yl}phenyl) carbamate]"
21,92,"COCCS(=O)(=O)C(C(=O)NCC(=O)NC1CC1)c1nc2cc(F)c(-c3ccccc3NC(=O)OC)cc2s1 (centres unmarked) [Example 537, methyl N-{2-[2-({[(cyclopropyl-carbamoyl)methyl]carbamoyl}(2-methoxyethane-sulfonyl)methyl)-5-fluoro-1,3-benzothiazol-6-yl]phenyl} carbamate]"
22,1,"CC(C)OC(=O)Nc1ccc(-c2cc3sc(C(C(=O)NCC(=O)NC4CC4)S(C)(=O)=O)nc3cc2F)cc1 (centres unmarked) [Example 539, propan-2-yl N-{4-[2-({[(cyclopropyl-carbamoyl)methyl]carbamoyl} (methanesulfonyl)methyl)-5-fluoro-1,3-benzothiazol-6-yl]phenyl} carbamate]"

row,SMILES,IC50 [nM]
1,"O=C(CNC(=O)C(c1nc2ccc(-c3ccc(F)nc3)cc2s1)S(=O)(=O)Cc1ccc(F)cc1)NC1CC1 (centres unmarked) [Example 515, N-[(cyclopropyl-carbamoyl)methyl]-2-[(4-fluorophenyl)methanesulfonyl]-2-[6-(6-fluoropyridin-3-yl)-1,3-benzothiazol-2-yl]acetamide]",48

# Same assay, conditions: EL from conditioned media of HT-1080 cells; 30 min preincubation at 37° C.
row,IC50 [nM],SMILES
1,0.5,"COCCS(=O)(=O)C(C(=O)NCC(=O)NC1CC1)c1nc2cc(F)c(-c3ccc(NC(=O)OCC4CC4)cc3)cc2s1 (centres unmarked) [Example 525, Cyclopropylmethyl N-{4-[2-({[(cyclopropylcarbamoyl)methyl]carbamoyl}(2-methoxyethanesulfonyl)methyl)-5-fluoro-1,3-benzothiazol-6-yl]phenyl}carbamate]"
2,110,"COC(=O)Nc1ccccc1-c1cc2sc(C(C(=O)NCC(=O)NC3CC3)S(C)(=O)=O)nc2cc1F (centres unmarked) [Example 532, Methyl N-{2-[2({[(cyclopropylcarbamoyl)methyl]carbamoyl}(methanesulfonyl)methyl)-5-fluoro-1,3-benzothiazol-6-yl]phenyl}carbamate]"
3,4.5,"COC(=O)Nc1ccc(-c2cc3sc(C(C(=O)NCC(=O)NC4CC4)S(C)(=O)=O)nc3cc2F)cc1OC (centres unmarked) [Example 538, Methyl N-{4-[2({[(cyclopropylcarbamoyl)methyl]carbamoyl}(methanesulfonyl)methyl)-5-fluoro-1,3-benzothiazol-6-yl]-2-methoxyphenyl}carbamate]"

# Reference: patent publication US10173991B2, “Sulfone amide linked benzothiazole inhibitors of endothelial lipase” (BRISTOL-MYERS SQUIBB COMPANY, priority 2014, dated 2019)
